Experimental data as given in paper PMC7070407, “Moringin, A Stable Isothiocyanate from Moringa oleifera, Activates the Somatosensory and Pain Receptor TRPA1 Channel In Vitro” (Molecules, 2020).

Target: T1, rat TRPA1 (Rattus norvegicus, UniProt Q6RI86)
T1 construct: expressed in transfected cells; host or cells: HEK-293
Assay: Elevation of intracellular Ca2+ (Fluo-4) in HEK-293 cells stably transfected with rat TRPA1; agonist and antagonist/desensitizing behaviour
Assay type: cell-based
Details: AP18 at 50 μM, 5 min pre-incubation, rTRPA1-HEK-293
Method: Assay of rat TRPA1, TRPV2, TRPV3, TRPV4, TRPM8 or human TRPV1 mediated elevation of intracellular Ca^2+ in transfected HEK-293 cells are been performed as described. Briefly, human embryonic kidney (HEK-293) cells, stably transfected with rat TRPA1, TRPV2, TRPV3, TRPV4, TRPM8 or human TRPV1 (selected by Geneticin 600 μg mL^−1) or not transfected, were cultured in EMEM + 2 mM Glutamine + 1% Non-Essential Amino Acids (NEAA) + 10% FBS and maintained at 37 °C with 5% CO2. Stable transfections were checked by quantitative real-time polymerase chain reaction (PCR), quantitative real-time PCR was performed by an iCycler-iQ (Bio-Rad, Hercules, CA, USA) in a 20 μL reaction mixture containing the following: 10 μL iQ SYBR Green Supermix 2X (Bio-Rad), 20 ng of cDNA (calculated on the basis of the retro-transcribed RNA), and 330 nM for each primer. Optimized primers for SYBR Green analysis (and relative TaOpt) and optimum annealing temperatures were designed by Allele-Id software version 7.0 (Biosoft International, Palo Alto, CA, USA) and were synthesized (HPLC-purification grade) by MWG-Biotech AG (Ebersberg, Germany). Assays were performed in quadruplicate (maximal ΔCt of replicate samples, <0.5). Relative expression analysis, correct for PCR efficiency and normalized with respect to reference genes β-actin and glyceraldehyde 3-phosphate dehydrogenase, was performed by GENEX software (Bio-Rad). […] The day of the experiment the cells were loaded with Fluo-4 AM (4 μM in DMSO containing 0.02% Pluronic F-127) for 1 h in the dark at room temperature, rinsed and resuspended in Tyrode’s solution (145 mM NaCl, 2.5 mM KCl, 1.5 mM CaCl2, 1.2 mM MgCl2, 10 mM D-glucose, and 10 mM HEPES, pH 7.4), finally transferred to a quartz cuvette of a spectrofluorimeter (Perkin-Elmer LS50B; λEX = 488 nm, λEM = 516 nm) equipped with PTP-1 Fluorescence Peltier System (PerkinElmer Life and Analytical Sciences, Waltham, MA, USA) under continuous stirring. Cell fluorescence before and after the addition of various concentrations of test compounds and extracts were measured normalizing the effects against the response to ionomycin (4 µM). The values of the effect on [Ca^2+]i in HEK-293 cells not transfected are used as baseline and subtracted from the values obtained from transfected cells. […] The potency of the compounds (EC50 values) are determined as the concentration required to produce half-maximal increases in [Ca^2+]i. In TRPV3 assay TRPV3-expressing HEK293 cells were first sensitized with the structurally unrelated agonist 2-aminoethoxydiphenyl borate (100 μM). Antagonist/desensitizing behaviour is evaluated against the agonist of the TRP analyzed by adding the compounds directly in the quartz cuvette 5 min before stimulation of cells with the agonist. […] In order to assess functional antagonism of TRPA1 channels, AP18, 4-(4-chlorophenyl)-3-methyl-3-buten-2-one oxime […] Dose-response curve fitting (sigmoidal dose-response variable slope) and parameter estimation were performed with Graph-Pad Prism8® (GraphPad Software Inc., San Diego, CA, USA). All determinations were performed at least in triplicate.

T1 sequence (Q6RI86 whole entry): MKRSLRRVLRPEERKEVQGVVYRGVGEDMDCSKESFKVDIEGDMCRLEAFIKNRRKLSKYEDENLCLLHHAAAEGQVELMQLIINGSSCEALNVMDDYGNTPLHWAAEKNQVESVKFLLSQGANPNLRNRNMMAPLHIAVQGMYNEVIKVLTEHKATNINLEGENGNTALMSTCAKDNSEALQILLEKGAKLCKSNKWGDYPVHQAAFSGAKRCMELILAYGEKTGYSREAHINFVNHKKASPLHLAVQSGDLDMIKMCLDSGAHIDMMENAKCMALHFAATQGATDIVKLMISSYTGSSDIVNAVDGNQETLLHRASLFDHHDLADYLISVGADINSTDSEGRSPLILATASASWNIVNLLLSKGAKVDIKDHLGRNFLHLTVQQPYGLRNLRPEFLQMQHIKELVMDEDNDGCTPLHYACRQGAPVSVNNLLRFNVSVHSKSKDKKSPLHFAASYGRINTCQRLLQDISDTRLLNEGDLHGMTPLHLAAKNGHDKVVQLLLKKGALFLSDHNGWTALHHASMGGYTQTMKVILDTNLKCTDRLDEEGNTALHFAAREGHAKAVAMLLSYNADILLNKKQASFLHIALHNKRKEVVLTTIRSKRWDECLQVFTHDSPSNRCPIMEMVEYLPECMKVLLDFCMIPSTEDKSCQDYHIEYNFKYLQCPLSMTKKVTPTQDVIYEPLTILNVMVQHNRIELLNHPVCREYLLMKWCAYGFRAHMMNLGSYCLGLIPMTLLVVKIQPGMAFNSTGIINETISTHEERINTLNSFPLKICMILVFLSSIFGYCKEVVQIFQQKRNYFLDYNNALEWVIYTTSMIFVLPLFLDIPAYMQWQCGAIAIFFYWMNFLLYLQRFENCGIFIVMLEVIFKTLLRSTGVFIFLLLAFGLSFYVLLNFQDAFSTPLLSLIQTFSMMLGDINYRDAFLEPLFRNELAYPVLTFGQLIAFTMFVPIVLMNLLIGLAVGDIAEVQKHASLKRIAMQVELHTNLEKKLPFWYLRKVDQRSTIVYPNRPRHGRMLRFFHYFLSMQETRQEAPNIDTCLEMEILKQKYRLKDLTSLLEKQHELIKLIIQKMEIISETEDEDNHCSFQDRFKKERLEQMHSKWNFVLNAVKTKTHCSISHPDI

CC(=Cc1ccc(Cl)cc1)C(C)=NO [AP18, 4-(4-chlorophenyl)-3-methyl-3-buten-2-one oxime, reference compound]
Reduction of elevation of intracellular Ca2+ induced by AITC (100 μM): 68.6 ± 3.0% | Reduction of elevation of intracellular Ca2+ induced by moringin (10 μM): 64.1 ± 2.7%
